In the oligonucleotide strings, read from the 5' end, every base follows the letter of its sugar. An asterisk marks phosphorothioate; unmarked linkages are phosphodiester. Other units and linkages are bracketed, terminal groups are in braces. A string of capitals states the bases alone. e = 2'-O-(2-methoxyethyl) (MOE); [5mC] = 5-methylcytosine; d = 2'-deoxy (DNA)
Experiments:
Format in all cases: cell-based, human
bcl-xs mRNA = experiment: RNase protection assay, bcl-xs mRNA in A549 cells; set-up: concentration or dose not given beside the values; details: RPA
Source text: (§1) The ribonuclease (RNase) protection assay is a sensitive and specific method for quantitating expression levels (Zinn, et al., Cell, 1983, 34:865–79). The method is based on the hybridization of a target RNA to an in vitro transcribed ^32P-labeled anti-sense RNA probe from a DNA template. RNase treatment follows, resulting in degradation of single-stranded RNA and excess probe. The probe and target RNA are resolved by denaturing polyacrylamide gel electrophoresis with the “protected” probe visualized using autoradiography or beta imaging equipment. Template sets can be purchased (PharMingen Inc., San Diego Calif.) which contain a series of biologically relevant templates, each of distinct length and each representing a sequence in a distinct mRNA species. Each template set is capable of detecting up to 11 unique gene messages in a single reaction mix in addition to one or more housekeeping genes, L32 and GAPDH, which serve as internal controls. These template sets allow for multiple determinations to be made from a single sample. Multi-probe RPA can be performed on total RNA preparations derived by standard methods, without further purification of poly-A+ RNA.
(§2) Oligonucleotides were evaluated for their respective effects on bcl-xs and bcl-xl mRNA levels along with total bcl-x mRNA levels, using the RIBOQUANT™ RNase protection kit (Pharmingen, San Diego Calif.). All assays were performed according to manufacturer's protocols. Briefly, multi-probe DNA template sets were used to generate antisense RNA transcripts radiolabeled with […]. The template set used for apoptosis genes was the human hAPO-2 set. These radiolabeled probes were hybridized overnight with typically 10 μg of total cellular RNA. The reaction mixture was then digested with single-strand RNases to generate the protected fragments which were electrophoresed through a 5% acrylamide/urea gel. Protected bands were visualized and quantitated using a PhosphorImager (Molecular Dynamics, Sunnyvale Calif.).
(§3) Human bcl-x has two forms, a long form known as bcl-xl and a short form known as bcl-xs. […] The protein of bcl-xl is similar in size and structure to bcl-2, and could inhibit cell death upon growth factor withdrawal. The protein of bcl-xs is 63 amino acids shorter than bcl-xl. It could inhibit the bcl-2 function, thus promoting programmed cell death (apoptosis). Oligonucleotides were evaluated for their respective effects on bcl-xs and bcl-xl mRNA levels along with total bcl-x mRNA levels, using the RIBOQUANT™ RNase protection kit (Pharmingen, San Diego Calif.). All assays were performed according to manufacturer's protocols.

bcl-xl mRNA = experiment: RNase protection assay, bcl-xl mRNA in A549 cells; details: RPA
Source text: as §1, §2, §3
(§4) These oligonucleotides were tested for their inhibitory effects on bcl-xl and bcl-xs mRNA levels in A549 cells, as detected by RPA analysis. Oligonucleotide concentration was 200 nM.

total bcl-x mRNA = experiment: RNase protection assay, total bcl-x mRNA in A549 cells; set-up: % CONTROL total bcl-x: concentration or dose not given beside the values; details: RPA
Source text: as §1, §2, §3

bcl-xs/bcl-xl mRNA ratio = experiment: RNase protection assay, bcl-xs/bcl-xl mRNA ratio in A549 cells; details: A549 cells, RPA; for bcl-xs/bcl-xl (%): no oligo 17.56; for bcl-xs/bcl-xl* (change from the control ratio 17.56) / bcl-xs/bcl-xl Fold difference: no oligo = 1; for bcl-xs/bcl-xl Fold difference: 200 nM
Source text: as §1, §2, §3, §4

[1] = test system: bcl-xs/bcl-xl transcript ratio; experiment: PNA analogs, bcl-x splicing in electroporated HeLa cells; details: electroporation
Source text: A peptide-nucleic acid (PNA) oligonucleotide having the ISIS 22783 sequence (SEQ ID NO: 33) was synthesized as described in Example 4 hereinabove. The oligonucleotide (ISIS 32262) was uniformly modified with a PNA backbone throughout. A 5-base mismatch compound (ISIS 32263, SEQ ID NO: 52) was also synthesized as a full PNA. HeLa cells were transfected with these compounds by electroporation with a 200V pulse using a BTX Electro Cell Manipulator 600 (Genetronics, San Diego Calif.) and RNA was isolated 24 hours later.

16968 (antisense e[5mC]*eT*e[5mC]*e[5mC]*eG*dA*dT*dG*dT*dC*dC*dC*dC*dT*dC*eA*eA*eA*eG*eT) [compound 16968]
% CONTROL bcl-xs (bcl-xs mRNA): 20%
% CONTROL bcl-xl (bcl-xl mRNA): 15%
% CONTROL total bcl-x (total bcl-x mRNA): 21%
bcl-xs/bcl-xl (%) (bcl-xs/bcl-xl mRNA ratio): 20.18%
bcl-xs/bcl-xl* (change from the control ratio 17.56) (bcl-xs/bcl-xl mRNA ratio): 1.15

16972 (antisense eT*e[5mC]*eA*e[5mC]*eG*dT*dT*dG*dG*dC*dG*dC*dT*dT*dA*eG*e[5mC]*e[5mC]*eA*eT) [compound 16972]
% CONTROL bcl-xs (bcl-xs mRNA): 60%
% CONTROL bcl-xl (bcl-xl mRNA): 91%
% CONTROL total bcl-x (total bcl-x mRNA): 87%
bcl-xs/bcl-xl (%) (bcl-xs/bcl-xl mRNA ratio): 11.68%
bcl-xs/bcl-xl* (change from the control ratio 17.56) (bcl-xs/bcl-xl mRNA ratio): 0.67

22782 (antisense e[5mC]*eA*eA*eA*eA*eG*eT*eA*eT*e[5mC]*e[5mC]*e[5mC]*eA*eG*e[5mC]*e[5mC]*eG*e[5mC]*e[5mC]*eG) [compound 22782]
% CONTROL bcl-xs (bcl-xs mRNA): 64%
% CONTROL bcl-xl (bcl-xl mRNA): 76%
% CONTROL total bcl-x (total bcl-x mRNA): 75%
bcl-xs/bcl-xl (%) (bcl-xs/bcl-xl mRNA ratio): 15.72%
bcl-xs/bcl-xl* (change from the control ratio 17.56) (bcl-xs/bcl-xl mRNA ratio): 0.89

22783 (antisense e[5mC]*eT*eG*eG*eA*eT*e[5mC]*e[5mC]*eA*eA*eG*eG*e[5mC]*eT*e[5mC]*eT*eA*eG*eG*eT) [compound 22783]
% CONTROL bcl-xs (bcl-xs mRNA): 620%
% CONTROL bcl-xl (bcl-xl mRNA): 35%
% CONTROL bcl-xl (bcl-xl mRNA; 200 nM): 39%
% CONTROL total bcl-x (total bcl-x mRNA): 120%
bcl-xs/bcl-xl Fold difference (bcl-xs/bcl-xl mRNA ratio): 18 fold
bcl-xs/bcl-xl (%) (bcl-xs/bcl-xl mRNA ratio): 293.10%
bcl-xs/bcl-xl* (change from the control ratio 17.56) (bcl-xs/bcl-xl mRNA ratio): 16.69

22784 (antisense e[5mC]*e[5mC]*eA*eG*e[5mC]*e[5mC]*eG*e[5mC]*e[5mC]*eG*eT*eT*e[5mC]*eT*e[5mC]*e[5mC]*eT*eG*eG*eA) [compound 22784]
% CONTROL bcl-xs (bcl-xs mRNA): 204%
% CONTROL bcl-xl (bcl-xl mRNA): 72%
% CONTROL total bcl-x (total bcl-x mRNA): 92%
bcl-xs/bcl-xl (%) (bcl-xs/bcl-xl mRNA ratio): 48.63%
bcl-xs/bcl-xl* (change from the control ratio 17.56) (bcl-xs/bcl-xl mRNA ratio): 2.77

22785 (antisense eG*e[5mC]*e[5mC]*eG*e[5mC]*e[5mC]*eG*eT*eT*e[5mC]*eT*e[5mC]*e[5mC]*eT*eG*eG*eA*eT*e[5mC]*e[5mC]) [compound 22785]
% CONTROL bcl-xs (bcl-xs mRNA): 248%
% CONTROL bcl-xl (bcl-xl mRNA): 53%
% CONTROL total bcl-x (total bcl-x mRNA): 83%
bcl-xs/bcl-xl (%) (bcl-xs/bcl-xl mRNA ratio): 80.14%
bcl-xs/bcl-xl* (change from the control ratio 17.56) (bcl-xs/bcl-xl mRNA ratio): 4.56

23172 (antisense eG*eT*eT*e[5mC]*e[5mC]*eT*eG*eG*e[5mC]*e[5mC]*e[5mC]*eT*eT*eT*e[5mC]*eG*eG*e[5mC]*eT*e[5mC]) [compound 23172]
% CONTROL bcl-xs (bcl-xs mRNA): 84%
% CONTROL bcl-xl (bcl-xl mRNA): 77%
% CONTROL total bcl-x (total bcl-x mRNA): 79%
bcl-xs/bcl-xl (%) (bcl-xs/bcl-xl mRNA ratio): 19.38%
bcl-xs/bcl-xl* (change from the control ratio 17.56) (bcl-xs/bcl-xl mRNA ratio): 1.10

26066 (antisense ATCCAAGGCTCTAGGTGGTC; all 2'-MOE, all phosphorothioate, methylation of C not given here) [compound 26066]
% CONTROL bcl-xl (bcl-xl mRNA; 200 nM): 24%
bcl-xs/bcl-xl Fold difference (bcl-xs/bcl-xl mRNA ratio): 37 fold

26080 (antisense CTGGTTACACGACTCCAGGT; all 2'-MOE, all phosphorothioate, methylation of C not given here) [compound 26080]
% CONTROL bcl-xl (bcl-xl mRNA; 200 nM): 77%
bcl-xs/bcl-xl Fold difference (bcl-xs/bcl-xl mRNA ratio): 2 fold

105751 (antisense TGGTTCTTACCCAGCCGCCG; all 2'-MOE, all phosphorothioate, methylation of C not given here) [compound 105751]
% CONTROL bcl-xl (bcl-xl mRNA; 200 nM): 34%
bcl-xs/bcl-xl Fold difference (bcl-xs/bcl-xl mRNA ratio): 45 fold

106249 (antisense CTCTAGGTGGTCATTCAGGT; all 2'-MOE, all phosphorothioate, methylation of C not given here) [compound 106249]
% CONTROL bcl-xl (bcl-xl mRNA; 200 nM): 47%
bcl-xs/bcl-xl Fold difference (bcl-xs/bcl-xl mRNA ratio): 23 fold

106250 (antisense CTAGGTGGTCATTCAGGTAA; all 2'-MOE, all phosphorothioate, methylation of C not given here) [compound 106250]
% CONTROL bcl-xl (bcl-xl mRNA; 200 nM): 40%
bcl-xs/bcl-xl Fold difference (bcl-xs/bcl-xl mRNA ratio): 21 fold

106251 (antisense AGGTGGTCATTCAGGTAAGT; all 2'-MOE, all phosphorothioate, methylation of C not given here) [compound 106251]
% CONTROL bcl-xl (bcl-xl mRNA; 200 nM): 57%
bcl-xs/bcl-xl Fold difference (bcl-xs/bcl-xl mRNA ratio): 25 fold

106252 (antisense GTGGTCATTCAGGTAAGTGG; all 2'-MOE, all phosphorothioate, methylation of C not given here) [compound 106252]
% CONTROL bcl-xl (bcl-xl mRNA; 200 nM): 72%
bcl-xs/bcl-xl Fold difference (bcl-xs/bcl-xl mRNA ratio): 23 fold

106253 (antisense GGTCATTCAGGTAAGTGGCC; all 2'-MOE, all phosphorothioate, methylation of C not given here) [compound 106253]
% CONTROL bcl-xl (bcl-xl mRNA; 200 nM): 48%
bcl-xs/bcl-xl Fold difference (bcl-xs/bcl-xl mRNA ratio): 19 fold

106254 (antisense TCATTCAGGTAAGTGGCCAT; all 2'-MOE, all phosphorothioate, methylation of C not given here) [compound 106254]
% CONTROL bcl-xl (bcl-xl mRNA; 200 nM): 80%
bcl-xs/bcl-xl Fold difference (bcl-xs/bcl-xl mRNA ratio): 13 fold

106255 (antisense ATTCAGGTAAGTGGCCATCC; all 2'-MOE, all phosphorothioate, methylation of C not given here) [compound 106255]
% CONTROL bcl-xl (bcl-xl mRNA; 200 nM): 64%
bcl-xs/bcl-xl Fold difference (bcl-xs/bcl-xl mRNA ratio): 17 fold

106256 (antisense TCAGGTAAGTGGCCATCCAA; all 2'-MOE, all phosphorothioate, methylation of C not given here) [compound 106256]
% CONTROL bcl-xl (bcl-xl mRNA; 200 nM): 82%
bcl-xs/bcl-xl Fold difference (bcl-xs/bcl-xl mRNA ratio): 15 fold

106257 (antisense AGGTAAGTGGCCATCCAAGC; all 2'-MOE, all phosphorothioate, methylation of C not given here) [compound 106257]
% CONTROL bcl-xl (bcl-xl mRNA; 200 nM): 78%
bcl-xs/bcl-xl Fold difference (bcl-xs/bcl-xl mRNA ratio): 13 fold

106258 (antisense GTAAGTGGCCATCCAAGCTG; all 2'-MOE, all phosphorothioate, methylation of C not given here) [compound 106258]
% CONTROL bcl-xl (bcl-xl mRNA; 200 nM): 66%
bcl-xs/bcl-xl Fold difference (bcl-xs/bcl-xl mRNA ratio): 21 fold

106259 (antisense AAGTGGCCATCCAAGCTGCG; all 2'-MOE, all phosphorothioate, methylation of C not given here) [compound 106259]
% CONTROL bcl-xl (bcl-xl mRNA; 200 nM): 96%
bcl-xs/bcl-xl Fold difference (bcl-xs/bcl-xl mRNA ratio): 15 fold

106260 (antisense GTGGCCATCCAAGCTGCGAT; all 2'-MOE, all phosphorothioate, methylation of C not given here) [compound 106260]
% CONTROL bcl-xl (bcl-xl mRNA; 200 nM): 66%
bcl-xs/bcl-xl Fold difference (bcl-xs/bcl-xl mRNA ratio): 12 fold

ISIS 32262: PNA oligonucleotide having the ISIS 22783 sequence (SEQ ID NO: 33), PNA backbone throughout (CTGGATCCAAGGCTCTAGGT; all peptide nucleic acid (PNA))
Ratio (approx.) of bcl-xs/bcl-xl ([1]; 2 μM): ~2.0
Ratio (approx.) of bcl-xs/bcl-xl ([1]; 5 μM): ~3.5
Ratio (approx.) of bcl-xs/bcl-xl ([1]; 10 μM): ~6.5
Ratio (approx.) of bcl-xs/bcl-xl ([1]; 15 μM): ~7.75
Ratio (approx.) of bcl-xs/bcl-xl ([1]; 25 μM): ~11.5
Ratio (approx.) of bcl-xs/bcl-xl ([1]; RNA 24 hours later, 1 μM): ~1.5

ISIS 32263: 5-base mismatch compound, SEQ ID NO: 52, full PNA (CTGGTTACACGACTCCAGGT; all peptide nucleic acid (PNA)) [reference compound]
Ratio (approx.) of bcl-xs/bcl-xl ([1]; 2 μM): ~0.75
Ratio (approx.) of bcl-xs/bcl-xl ([1]; 5 μM): ~0.75
Ratio (approx.) of bcl-xs/bcl-xl ([1]; 10 μM): ~1.0
Ratio (approx.) of bcl-xs/bcl-xl ([1]; 15 μM): ~0.75
Ratio (approx.) of bcl-xs/bcl-xl ([1]; 25 μM): ~1.0
Ratio (approx.) of bcl-xs/bcl-xl ([1]; RNA 24 hours later, 1 μM): ~1.5

Reference: patent US7148204B2, “Antisense modulation of bcl-x expression” (Isis Pharmaceuticala, Inc., priority 1998, dated 2006)
